The subject of the experiment is Radical scavenging activity. Kind of experiment: Antioxidant activity assessed as DPPH free radical scavenging activity after 30 mins by multilabel counter. It is filed as functional. (In general: DPPH is a stable violet radical that fades when it is reduced.)
The term IC50 denotes the midpoint of a concentration-inhibition curve. Consider `COc1cc(CC[C@@H](O)C[C@@H](O)CCc2ccc(O)c(OC)c2)ccc1O`, for which the IC50 came out at 20.6 µM.

In the case of `COc1cc(CC[C@H](O)C[C@@H](O)CCc2ccc(O)c(OC)c2)ccc1O`, the IC50 is 20.1 µM.

Consider `COc1cc(CC[C@H](O)C[C@@H](O)CCc2cc(OC)c(O)c(OC)c2)ccc1O`, for which the IC50 came out at 16.4 µM.

As for `COc1cc(CC[C@@H](O)C[C@@H](O)CCc2ccc(O)c(O)c2)ccc1O` (relative stereo), the IC50 turned out to be 24 µM.

As for `Cc1c(C)c2c(c(C)c1O)CC[C@@](C)(CCC[C@H](C)CCC[C@H](C)CCCC(C)C)O2` [ALPHA-TOCOPHEROL], the IC50 came to 37.5 µM.

For the molecule `O=C1O[C@H]([C@@H](O)CO)C(O)=C1O` [ASCORBIC ACID], the IC50 amounted to 35.6 µM.

The values are drawn from ChEMBL document CHEMBL1158113, “Terpenoids and a diarylheptanoid from Zingiber ottensii” (J Nat Prod, 2006).
